# Assay results reported in PubChem BioAssay (NCI).
# “And” between values parts separate entries of the source, which are not always exact repeats. Identical values can stand only once.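 The compound was tested at five concentrations on cells cultured in 96-well plates, with a 48-hour exposure period. Abbreviation: GI50, concentration required for 50% inhibition of growth. TGI: concentration producing complete growth inhibition.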
# Legend:
# Experiment in all cases: NCI tumour cell line growth inhibition, 48 h
# [1] = tested on: NCI-H460 lung
# [2] = tested on: DU-145 prostate
# [3] = tested on: HCT-116 colon
# [4] = tested on: HCC-2998 colon
# [5] = tested on: MCF7 breast
# [6] = tested on: NCI-H522 lung
# [7] = tested on: LOX IMVI melanoma
# [8] = tested on: RXF 393 renal
# [9] = tested on: CCRF-CEM leukemia
# [10] = tested on: 786-0 renal
Compound,GI50 [1],TGI [1],GI50 [2],TGI [2],GI50 [3],TGI [3],GI50 [4],TGI [4],GI50 [5],TGI [5],GI50 [6],TGI [6],GI50 [7],TGI [7],GI50 [8],TGI [8],GI50 [9],TGI [9],GI50 [10],TGI [10]
CCCC[P+](c1ccccc1)(c1ccccc1)c1ccccc1,1.96 µM,24.7 µM,4.41 µM,> 100 µM,2.87 µM,> 100 µM,1.42 µM,> 100 µM,1.33 µM,> 100 µM,1.22 µM,6.85 µM,3.01 µM,> 100 µM,18.5 µM,> 100 µM,1.72 µM,> 100 µM,19.5 µM,> 100 µM
CCCCN(CCCC)CC(C)(C)C(O)c1ccc(OC)c2ccccc12 (stereo not drawn),3.52 µM,16.5 µM,10.2 µM,52.3 µM,1.08 µM,10.8 µM,3.69 µM,12 µM,3.55 µM,15.4 µM,4.18 µM,18.5 µM,5.53 µM,19.4 µM,1.5 µM,4.51 µM,5.13 µM,26.7 µM,10 µM,28 µM
O=C(NCCCNC(=O)OCc1ccc2c(Br)cc(Br)c(O)c2n1)OCc1ccc2c(Br)cc(Br)c(O)c2n1,> 100 µM,> 100 µM,> 100 µM,> 100 µM,> 100 µM,> 100 µM,> 100 µM,> 100 µM,> 100 µM,> 100 µM,> 100 µM,> 100 µM,> 100 µM,> 100 µM,> 100 µM,> 100 µM,> 100 µM,> 100 µM,> 100 µM,> 100 µM
CC1CCC2C(C)C3C(CC4C5CC=C6CC(OC7OC(CO)C(O)C(OC8OC(CO)C(O)C(O)C8O)C7OC7OC(C)C(O)C(O)C7O)CCC6(C)C5CCC43C)N2C1 (stereo not drawn),> 2.5 µg/mL,37.6 µM and > 2.5 µg/mL,> 2.5 µg/mL,38.7 µM and > 2.5 µg/mL,> 2.5 µg/mL,24.5 µM and > 2.5 µg/mL,> 2.5 µg/mL,35 µM and > 2.5 µg/mL,> 2.5 µg/mL,29.1 µM and > 2.5 µg/mL,> 2.5 µg/mL,35.2 µM and > 2.5 µg/mL,> 2.5 µg/mL,29.7 µM and > 2.5 µg/mL,> 2.5 µg/mL,22.3 µM and > 2.5 µg/mL,> 2.5 µg/mL,28.2 µM and > 2.5 µg/mL,> 2.5 µg/mL,20.4 µM and > 2.5 µg/mL
CCOC(=O)CNC(=O)CCCn1c(=O)c2c3ccccc3n(C)c2n2nnc(-c3ccccc3)c12,> 50 µM,> 50 µM,32 µM,> 50 µM,9.04 µM,27.3 µM,> 50 µM,> 50 µM,31.3 µM,> 50 µM,6.49 µM,19.9 µM,25.1 µM,> 50 µM,1.33 µM,4.41 µM,26.5 µM,> 50 µM,5.13 µM,17.4 µM
Cc1c2ncccc2nc2[nH]c3ccc(OCCN(C)C)cc3c12,1.93 µM,11 µM,1.9 µM,11.6 µM,0.552 µM,12.3 µM,1.64 µM,14.6 µM,0.305 µM,6.04 µM,2.41 µM,15.9 µM,1.54 µM,5.78 µM,2.89 µM,9.92 µM,2.1 µM,20.9 µM,2.81 µM,16.1 µM
CC(C)=CCC/C(C)=C/CC/C(=C/COP(=O)(OCc1ccc([N+](=O)[O-])o1)N(C)CCCCCl)CC=C(C)C (stereo not drawn),3.75 µM,11.8 µM,1.94 µM,18.6 µM,2.06 µM,7.97 µM,0.0597 µM,2.45 µM,1.88 µM,5.91 µM,2.04 µM,7.47 µM,2.92 µM,11.5 µM,6.03 µM,22.8 µM,6.16 µM,> 100 µM,5.7 µM,19.2 µM
CCOC(=O)N1C/C(=C/c2ccc(OC)cc2)C(=O)/C(=C/c2ccc(OC)cc2)C1,3.13 µM,> 100 µM,4.18 µM,> 100 µM,0.21 µM,0.579 µM,1.81 µM,3.38 µM,0.363 µM,3.2 µM,2.91 µM,11.1 µM,0.979 µM,2.84 µM,1.56 µM,3.09 µM,2.85 µM,> 100 µM,1.79 µM,3.4 µM
O=C1C=CN(C2OC(CO)C(O)C2O)C(=O)C1 (stereo not drawn),0.728 µM,625 µM and 569 µM,,> 819 µM,2.54 µM,625 µM and > 2500 µM,,625 µM and > 2500 µM,4.63 µM,625 µM and > 2500 µM,> 625 µM and 518 µM,> 2320 µM,,625 µM and 788 µM,514 µM,625 µM and > 2500 µM,> 625 µM,> 1710 µM,,1260 µM
NC(N)=N/N=C/c1cccc(Cl)c1Cl,3.76 µM,14.7 µM,9.18 µM,21.1 µM,3.24 µM,10.8 µM,1.73 µM,3.47 µM,2.09 µM,5.03 µM,3.16 µM,13.6 µM,2.49 µM,8.4 µM,4.75 µM,18.3 µM,7.26 µM,29.2 µM,11.1 µM,24.7 µM
CC(F)(F)c1cc(F)ccc1-c1sc2cc(O)ccc2c1Oc1ccc(/C=C/C(=O)O)cc1,8.18 µM,23.5 µM,12.7 µM,28.5 µM,8.48 µM,22.1 µM,12.7 µM,30.6 µM,,15.2 µM,6.23 µM,29 µM,6.96 µM,21.9 µM,2.89 µM,14.5 µM,6.68 µM,94.4 µM,10.2 µM,31.2 µM
C=CC[Se]C(=O)Cc1c(C)n(C(=O)c2ccc(Cl)cc2)c2ccc(OC)cc12,0.491 µM,3.19 µM,1.9 µM,3.75 µM,1.76 µM,3.57 µM,1.64 µM,3.2 µM,1.81 µM,4.17 µM,1.97 µM,4.63 µM,1.74 µM,3.34 µM,,,2.58 µM,7.64 µM,1.73 µM,3.19 µM
